Measured values as given in PubChem BioAssay AID252 (DTP/NCI, 2004).
Where “and” joins values, the source holds several entries; their conditions need not be identical. Identical values can stand only once. Toxic doses and inconclusive results are not listed.

Tested on: BDF1 mice, intracerebral L1210 leukemia, survival T/C
Test: NCI In Vivo Anticancer Drug Screen. Data for tumor model L1210 Leukemia (intracerebral) in B6D2F1 (BDF1) mice
Details: higher = longer survival
Procedure, shortened: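 Mice carrying transplanted tumour were dosed with compound; survival was recorded and expressed as treated-group value (T) divided by vehicle-control value (C).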

[1] = endpoint: mean survival time, dose: 9.0 mg/kg/injection, schedule: Q01DX001 (ip), vehicle: carboxymethylcellulose (CMC)
[2] = endpoint: mean survival time, dose: 18.0 mg/kg/injection, schedule: Q01DX001 (ip), vehicle: carboxymethylcellulose (CMC)
[3] = endpoint: mean survival time, dose: 8.0 mg/kg/injection, schedule: Q01DX001 (ip), vehicle: carboxymethylcellulose (CMC)
[4] = endpoint: mean survival time, dose: 12.0 mg/kg/injection, schedule: Q01DX001 (ip), vehicle: carboxymethylcellulose (CMC)
[5] = endpoint: mean survival time, dose: 250.0 mg/kg/injection, schedule: Q01DX001 (ip), vehicle: carboxymethylcellulose (CMC)

## C[n+]1c2ccccc2c(Nc2ccc(NS(=O)(=O)CCCCN=C(N)N)cc2)c2ccc(N)cc21
endpoint: mean survival time, dose: 1.5 mg/kg/injection, schedule: Q01DX009 (ip), vehicle: water
  T/C: 103 % of control
endpoint: mean survival time, dose: 3.0 mg/kg/injection, schedule: Q01DX009 (ip), vehicle: water
  T/C: 121 % of control
endpoint: mean survival time, dose: 6.0 mg/kg/injection, schedule: Q01DX009 (ip), vehicle: water
  T/C: 117 % of control
endpoint: mean survival time, dose: 12.0 mg/kg/injection, schedule: Q01DX009 (ip), vehicle: water
  T/C: 101 % of control

## CN(N=O)C(=O)Nc1ccc(NC(=O)N(C)N=O)cc1
endpoint: mean survival time, dose: 4.5 mg/kg/injection, schedule: Q01DX001 (ip), vehicle: carboxymethylcellulose (CMC)
  T/C: 93 % of control
[1]
  T/C: 98 % of control
[2]
  T/C: 98 % of control

## O=NN(CCCl)C(=O)Nc1cccc(C(=O)O)c1
[3]
  T/C: 95 % of control
[4]
  T/C: 108 % of control
[2]
  T/C: 106 % of control

## O=NN(CCCl)C(=O)NC1CCSCC1
endpoint: mean survival time, dose: 3.0 mg/kg/injection, schedule: Q01DX001 (ip), vehicle: carboxymethylcellulose (CMC)
  T/C: 114 % of control
endpoint: mean survival time, dose: 5.0 mg/kg/injection, schedule: Q01DX001 (ip), vehicle: carboxymethylcellulose (CMC)
  T/C: 152 % of control and 154 % of control
endpoint: mean survival time, dose: 6.0 mg/kg/injection, schedule: Q01DX001 (ip), vehicle: carboxymethylcellulose (CMC)
  T/C: 161 % of control
[3]
  T/C: 203 % of control and 208 % of control
[1]
  T/C: 217 % of control
[4]
  T/C: 245 % of control and 316 % of control
endpoint: mean survival time, dose: 14.0 mg/kg/injection, schedule: Q01DX001 (ip), vehicle: carboxymethylcellulose (CMC)
  T/C: 286 % of control
[2]
  T/C: 230 % of control
endpoint: mean survival time, dose: 21.0 mg/kg/injection, schedule: Q01DX001 (ip), vehicle: carboxymethylcellulose (CMC)
  T/C: 155 % of control
endpoint: mean survival time, dose: 27.0 mg/kg/injection, schedule: Q01DX001 (ip), vehicle: carboxymethylcellulose (CMC)
  T/C: 94 % of control
endpoint: mean survival time, dose: 32.0 mg/kg/injection, schedule: Q01DX001 (ip), vehicle: carboxymethylcellulose (CMC)
  T/C: 93 % of control

## CN(N=O)C(=O)Nc1ccc(F)cc1
endpoint: mean survival time, dose: 75.0 mg/kg/injection, schedule: Q01DX001 (ip), vehicle: carboxymethylcellulose (CMC)
  T/C: 101 % of control
endpoint: mean survival time, dose: 150.0 mg/kg/injection, schedule: Q01DX001 (ip), vehicle: carboxymethylcellulose (CMC)
  T/C: 103 % of control

## O=NN(CCCl)C(=O)N[C@H]1CCC[C@@H](O)C1
endpoint: mean survival time, dose: 12.0 mg/kg/injection, schedule: Q01DX001 (ip), vehicle: saline with Tween-80
  T/C: 124 % of control
endpoint: mean survival time, dose: 18.0 mg/kg/injection, schedule: Q01DX001 (ip), vehicle: saline with Tween-80
  T/C: 164 % of control
endpoint: mean survival time, dose: 26.0 mg/kg/injection, schedule: Q01DX001 (ip), vehicle: saline with Tween-80
  T/C: 420 % of control
endpoint: mean survival time, dose: 40.0 mg/kg/injection, schedule: Q01DX001 (ip), vehicle: saline with Tween-80
  T/C: 452 % of control
endpoint: mean survival time, dose: 60.0 mg/kg/injection, schedule: Q01DX001 (ip), vehicle: saline with Tween-80
  T/C: 303 % of control
endpoint: mean survival time, dose: 90.0 mg/kg/injection, schedule: Q01DX001 (ip), vehicle: saline with Tween-80
  T/C: 90 % of control

## O=NN(CCF)C(=O)NC12CC3CC(CC(C3)C1)C2
endpoint: mean survival time, dose: 10.0 mg/kg/injection, schedule: Q01DX001 (ip), vehicle: other
  T/C: 103 % of control
endpoint: mean survival time, dose: 20.0 mg/kg/injection, schedule: Q01DX001 (ip), vehicle: other
  T/C: 101 % of control
endpoint: mean survival time, dose: 40.0 mg/kg/injection, schedule: Q01DX001 (ip), vehicle: other
  T/C: 110 % of control
endpoint: mean survival time, dose: 60.0 mg/kg/injection, schedule: Q01DX001 (ip), vehicle: other
  T/C: 120 % of control

## O=NN(CCCl)C(=O)Nc1ccc(SCC(=O)O)cc1
[4]
  T/C: 95 % of control
[2]
  T/C: 96 % of control
endpoint: mean survival time, dose: 26.0 mg/kg/injection, schedule: Q01DX001 (ip), vehicle: carboxymethylcellulose (CMC)
  T/C: 88 % of control

## CC(=O)OC1CCC(NC(=O)N(CCF)N=O)CC1 (stereo unspecified)
endpoint: mean survival time, dose: 24.0 mg/kg/injection, schedule: Q01DX001 (ip), vehicle: other
  T/C: 276 % of control
endpoint: mean survival time, dose: 32.0 mg/kg/injection, schedule: Q01DX001 (oral), vehicle: other
  T/C: 516 % of control
endpoint: mean survival time, dose: 36.0 mg/kg/injection, schedule: Q01DX001 (ip), vehicle: other
  T/C: 509 % of control

## N#CCCNC(=O)N(CCC#N)N=O
endpoint: mean survival time, dose: 167.0 mg/kg/injection, schedule: Q01DX001 (ip), vehicle: carboxymethylcellulose (CMC)
  T/C: 102 % of control
[5]
  T/C: 109 % of control

## CCCCn1cnc2c(SC3CCCC3)ncnc21
endpoint: mean survival time, dose: 125.0 mg/kg/injection, schedule: Q01DX001 (ip), vehicle: carboxymethylcellulose (CMC)
  T/C: 101 % of control
[5]
  T/C: 108 % of control
endpoint: mean survival time, dose: 500.0 mg/kg/injection, schedule: Q01DX001 (ip), vehicle: carboxymethylcellulose (CMC)
  T/C: 119 % of control

## COS(C)(=O)=O
endpoint: median survival time, dose: 16.0 mg/kg/injection, schedule: Q01DX005 (ip), vehicle: saline
  T/C: 104 % of control
endpoint: median survival time, dose: 32.0 mg/kg/injection, schedule: Q01DX005 (ip), vehicle: saline
  T/C: 99 % of control
endpoint: median survival time, dose: 64.0 mg/kg/injection, schedule: Q01DX005 (ip), vehicle: saline
  T/C: 99 % of control
endpoint: median survival time, dose: 128.0 mg/kg/injection, schedule: Q01DX005 (ip), vehicle: saline
  T/C: 101 % of control

## S=P(N1CC1)(N1CC1)N1CC1
endpoint: mean survival time, dose: 10.0 mg/kg/injection, schedule: Q01DX001 (ip), vehicle: saline
  T/C: 154 % of control
endpoint: mean survival time, dose: 15.0 mg/kg/injection, schedule: Q01DX001 (ip), vehicle: saline
  T/C: 228 % of control

## O=NN(CCF)C(=O)NC1CCCCC1
endpoint: mean survival time, dose: 13.0 mg/kg/injection, schedule: Q01DX001 (ip), vehicle: carboxymethylcellulose (CMC)
  T/C: 120 % of control
endpoint: mean survival time, dose: 13.5 mg/kg/injection, schedule: Q01DX001 (ip), vehicle: other
  T/C: 166 % of control and 214 % of control and 233 % of control
endpoint: mean survival time, dose: 13.5 mg/kg/injection, schedule: Q01DX001 (oral), vehicle: other
  T/C: 253 % of control and 270 % of control and 284 % of control
endpoint: mean survival time, dose: 20.0 mg/kg/injection, schedule: Q01DX001 (ip), vehicle: carboxymethylcellulose (CMC)
  T/C: 180 % of control
endpoint: mean survival time, dose: 27.0 mg/kg/injection, schedule: Q01DX001 (ip), vehicle: other
  T/C: 156 % of control and 373 % of control and 379 % of control
endpoint: mean survival time, dose: 27.0 mg/kg/injection, schedule: Q01DX001 (oral), vehicle: other
  T/C: 325 % of control and 352 % of control and 462 % of control
endpoint: mean survival time, dose: 30.0 mg/kg/injection, schedule: Q01DX001 (ip), vehicle: carboxymethylcellulose (CMC)
  T/C: 290 % of control and 322 % of control
endpoint: mean survival time, dose: 45.0 mg/kg/injection, schedule: Q01DX001 (ip), vehicle: carboxymethylcellulose (CMC)
  T/C: 293 % of control and 337 % of control
endpoint: mean survival time, dose: 54.0 mg/kg/injection, schedule: Q01DX001 (ip), vehicle: other
  T/C: 190 % of control and 322 % of control and 367 % of control
endpoint: mean survival time, dose: 54.0 mg/kg/injection, schedule: Q01DX001 (oral), vehicle: other
  T/C: 203 % of control and 379 % of control
endpoint: mean survival time, dose: 67.0 mg/kg/injection, schedule: Q01DX001 (ip), vehicle: carboxymethylcellulose (CMC)
  T/C: 275 % of control
